In patent US5665769A, “Pharmaceutical composition for preventing and treating retinal diseases” (Senju Pharmaceuticals Co., Ltd., priority 1993, dated 1997):

Experiments:
[1] = system: retina (rat); experiment: Retinal peroxidation induced by intravitreous injection of ferrous sulfate in rats, retinal TBA values (Experiment 1 (B-1)); format: in vivo, SD rats; settings: 1.5% suspension, 30 mg/kg oral
Procedure: (B) In vivo experiment in rats by intravitreous injection of ferrous ion:
(B-1) Evaluation by retinal TBA values
Antioxidative effects of oral administration of a suspension of 2-O-octadecylascorbic acid (30 mg/kg) on the retinal peroxidation induced by intravitreous injection of ferrous sulfate in rats were examined.
Seven weeks old SD rats fasted from the previous day were divided into 2 groups. A 5% solution of gum arabic (control)(2 ml/kg) was administered orally to one group in 3 divided portions. A 1.5% suspension (2 ml/kg) of 2-O-octadecylascorbic acid (30 mg/kg) was administered orally to the other group in 3 divided portions. Two hours after the first administration, rats were anesthetized systemically with ketamine hydrochloride. A 5 mM solution (5 μl) of ferrous sulfate was injected intravitreously into each of the left eyes, and physiological saline (5 μl) was injected intravitreously into each of the right eyes. Each injection was carried out using a microsyringe. One and four hours after the injection, a suspension of 2-O-octadecylascorbic acid or a 5% solution of gum arabic were administered again. Two hours after the third administration (i.e. six hours after the injection of ferrous ion), the rats were sacrificed. The eyeballs were removed, retinal homogenates were prepared from the eyes, and the TBA values and protein were determined.

[2] = system: bovine retinal homogenate; experiment: Ferrous chloride-induced peroxidation of bovine retinal homogenate in vitro, TBA value (Experiment 1 (A)); format: biochemical; settings: 10^-4 M
Procedure: (A) In vitro experiment using a bovine retinal homogenate:
Effects of 2-O-octadecylascorbic acid on the peroxidation induced by adding ferrous chloride to a bovine retinal homogenate were examined.
(1) Retinae were removed from bovine eyeballs (1/2 eye). Physiological saline was added to the retinae to prepare bovine retinal homogenates.
(2) Ferrous chloride (0.5 mM, dissolved in distilled water) was added to each of the retinal homogenates obtained in the above. Further, 2-O-octadecylascorbic acid and α-tocopherol were added to the resulting homogenates to final concentrations of the reaction mixtures of 10^-4 M, respectively. Further, distilled water was added to each of the homogenates to adjust a total volume to 1 ml. 2-O-octadecylascorbic acid and α-tocopherol were dissolved and diluted with ethanol. Thus, the final concentrations of ethanol in all of the reaction mixtures were adjusted to 1%. Then, the mixtures were subjected to reaction at 37° C. for 1 hour.
(3) 0.35% thiobarbituric acid (hereinafter referred to as TBA) reagent (50% aqueous acetic acid solution)(1 ml) was added to the reaction mixtures or standard solutions of the retinal homogenates obtained in the above (2). The mixtures were subjected to reaction in boiling water at 100° C. for 1 hour. After water cooling, n-butanol (2 ml) was added, and the mixtures were shaken for 5 minutes and centrifuged at 3000 rpm for 10 minutes. Fluorescence intensities (excitation wave length: 515 nm, emission wave length: 553 nm) were determined for the n-butanol layer. Proteins were determined using Bio-Rad Protein Assay Kit (trade name).

[3] = system: retina (ERG in rats); experiment: ERG in rats after light exposure for 20 hours (Experiment 2 (B-2), Method 2); format: in vivo; settings: 5.0% suspension, light 20 hours
Procedure: FIG. 5 is a graph showing the a-wave latency of ERG in rats after light exposure for 20 hours in Experiment 2 (B-2)(Method 2). The abscissa indicates time (day) after light exposure and the ordinate indicates a-wave latency (msec).
(B-2) Evaluation of ERG determination
Rats were subjected to dark adaptation for 12 hours and irradiated with light for 20 successive hours under the same conditions as those of (Method-1). After subjecting them to dark adaptation for 2 hours, ERG was determined. A 5.0% 2-O-octadecylascorbic acid suspension or 5.0% gum arabic solution (control) was orally administered once a day (100 mg/kg/day) from 7 days before the light exposure and twice a day (200 mg/kg/day) only on the day of the light exposure.

[4] = system: mice; experiment: Acute toxicity test in mice (Experiment 3); format: in vivo
Procedure: Acute toxicity test of 2-O-octadecylascorbic acid
2-O-octadecylascorbic acid was tested for the acute toxicity test in mice. As a result, no mouse died even in oral administration of 1000 mg/kg. This compound has therefore low toxicity.

[5] = system: bovine retinal homogenates; experiment: Peroxidation of bovine retinal homogenate by light exposure in presence of hematoporphyrin, TBA value (Experiment 2 (A)); format: biochemical; settings: 10^-4 M
Procedure: (A) In vitro experiment using bovine retinal homogenates
Antioxidative effects of 2-O-octadecylascorbic acid on peroxidation caused by light exposure of bovine retinal homogenates in the presence of hematoporphyrin (hereinafter referred to as HPP) were examined.
(1) HPP (100 μM, dissolved in ethanol), 2-O-octadecylascorbic acid (10^-4 M) and water were added to a retinal homogenate prepared by the same manner as that of the above Experiment 1 (A) Method (1). The mixture was irradiated with a fluorescent lamp (daylight lamp, 15 W, 3000 lux) from 20 cm above for 1 hour. The final concentration of ethanol in the reaction mixture was adjusted to 2%.
(2) One hour after the light exposure, according to the same manner as that of the above Experiment 1 (A) Method (3), lipidperoxides were determined by the TBA reaction and proteins were determined using Bio-Rad Protein Assay Kit (trade name).

[6] = system: retina (ERG in rats); experiment: ERG changes induced by intravitreous injection of ferrous sulfate in rats (Experiment 1 (B-2)); format: in vivo, SD rats; settings: 30 mg/kg oral
Description: FIG. 1 is a graph showing the a-wave amplitude of ERG in rats after intravitreous injection of ferrous ion in Experiment 1 (B-2). The abscissa indicates time (hour) and the ordinate indicates percentage (%) relative to the initial amplitude. In FIGS. 1 to 5, the compound (I) is 2-O-octadecylascorbic acid. FIG. 2 is a graph showing the b-wave latency of ERG in rats after intravitreous injection of ferrous ion in Experiment 1 (B-2). The abscissa indicates time (hour) and the ordinate indicates percentage (%) relative to the initial amplitude. FIG. 3 is a graph showing the b-wave amplitude of ERG in rats after intravitreous injection of ferrous ion in Experiment 1 (B-2). The abscissa indicates time (hour) and the ordinate indicates percentage (%) relative to the initial amplitude. (B-2) Evaluation by Electroretinogram (hereinafter referred to as ERG) determination Effects of oral administration of 2-O-octadecylascorbic acid (30 mg/kg) on the changes of ERG induced by intravitreous injection of ferrous sulfate in rats were examined. Twelve SD rats (7 weeks old) were fasted from the previous day. A 7.5 mM ferrous sulfate (5 μl) solution was injected intravitreously into each of the left eyes. A 1.5% suspension of 2-O-octadecylascorbic acid (30 mg/kg) or a 5% solution of gum arabic (control) was firstly administered orally 2 hours before the ferrous ion injection, and thereafter administered three times every 3 hours and then three times every 5 hours. ERG was determined 6, 9 and 24 hours after the ferrous ion injection and evaluated for the latency and amplitude of a-wave and b-wave.

[7] = 9 hours after ferrous ion injection, compared to control

For CCCCCCCCCCCCCCCCCCOC1=C(O)[C@@H]([C@@H](O)CO)OC1=O [2-O-octadecylascorbic acid], the “increase in the TBA value of the retina induced by intravitreous injection of ferrous ion” value [1] was “significantly inhibited the increase in the TBA value of the retina”, the “Retina: TBA value, left eye” value ([1]; left eye (ferrous sulfate injected), mean ± S.D., n=6, p < 0.01 vs control) was 0.47 ± 0.11 nM malondialdehyde/mg protein and the “Retina: TBA value, right eye” value ([1]; right eye (physiological saline injected), mean ± S.D., n=6) was 0.36 ± 0.06 nM malondialdehyde/mg protein. The “inhibitory effect on the peroxidation of the retinal homogenate” value ([2]; compared with α-tocopherol) was “more excellent inhibitory effect on the peroxidation of the retinal homogenate than that in the presence of α-tocopherol”, the “Retina: TBA value” ([2]; 0.5 mM ferrous chloride, 37° C., 1 hour, mean ± S.D., n=3, p < 0.001 vs control) was 0.61 ± 0.04 nM malondialdehyde/mg protein and the Inhibitory ratio ([2]; ferrous chloride control = 0, blank = 100, 60 min) was 94.9%. For the same molecule, the “delay of the a-wave latency” value ([3]; oral 100 mg/kg/day from 7 days before, 200 mg/kg/day on day of light exposure) was “significantly inhibited the delay of the a-wave latency”, the “amplitude of a-wave and b-wave” value ([3]; both groups) was “decreased in both groups” and the toxicity ([4]; acute toxicity, mice, oral) was “low toxicity”. For the same molecule, the mortality ([4]; mouse, in vivo, po, 1000 mg/kg) was “no mouse died”, the “inhibitory effect on light-induced peroxidation” value [5] was “significant inhibitory effect was observed” and the “Retina: TBA value” ([5]; HPP 100 μM, light 3000 lux 1 hour, mean ± S.D., n=3, p < 0.001 vs control) was 1.31 ± 0.21 nM malondialdehyde/mg protein. The “decrease of the amplitude of a-wave and b-wave” value [6, 7] was “more marked tendency to inhibit the decrease of the amplitude of a-wave and b-wave”, the “delay of the b-wave latency” value [6, 7] was “the delay of the b-wave latency was significantly inhibited” and the recovery of amplitude ([6]; 24 hours after ferrous ion injection, both groups) was “The amplitude was not recovered even in the determination after 24 hours”. The “delay of the latency and decrease of the amplitude of a-wave and b-wave” value ([6]; from 6 hours after ferrous ion injection, both groups) was “strongly observed in both groups”.
